Laboratory results as given in patent US8828931B2, “Bifunctional molecules for inhibiting HIV entry” (priority 2008, dated 2014).
pIC50: −log10 of the molar value. Where two headings read alike, the source gives them in different places. No end group written: not given here.

Columns and labels:
[1] = In vitro stability in PBMC culture, residual activity by cell-cell fusion inhibition assay; settings: 16 μM, 37° C.
Excerpt: (§1) Samples were collected at different intervals and tested for the residual concentrations of the active component using cell-cell fusion inhibition assay as described above.

[2] = biological target: proteinase K (Parengyodontium album, UniProt P06873); experiment: Resistance to proteolysis by proteinase K; settings: 4 μM in PBS, immobilized proteinase K 0.1 unit/ml, 37° C.
[3] = system: HIV-1 IIIB-mediated cell fusion (H9/HIV-1 IIIB effector cells, MT-2 target cells); settings: H9/HIV-1 IIIB and MT-2 cells, dye transfer
Procedure: HIV-1-mediated cell-cell fusion was determined by a dye transfer assay (Lu H et al. J Virol Methods 107:155-161, 2003) using Calcein AM-labeled HIV-1IIIB chronically infected H9 (H9/HIV-1 IIIB) cells as effector cells and MT-2 cells as target cells.

[4] = system: NL4-3V38A/N42G
Procedure: Briefly, 2×10^5 or 5×10^5 CEMx174 5.25M7 cells were infected with HIV-1 or HIV-2, respectively, at 100 TCID50 (50% tissue culture infective dose) in RPMI 1640 medium containing 10% FBS in the absence or presence of an antisera or purified IgG antibodies at graded concentrations overnight. On the fourth day post-infection, cells were harvested and lysed using a lysis buffer (Promega, Madison, Wis.). The luciferase activity was measured by Ultra 384 luminometer reader (Tecan) and the percent inhibition was calculated.

[5] = In vitro stability in human serum, residual activity by cell-cell fusion inhibition assay; settings: 16 μM, 37° C., 100% human serum
Excerpt: as §1

[6] = system: 93IN101 (B, R5); assay type: cell-based, HIV-1
Procedure: (§2) Briefly, the peripheral blood mononuclear cells (PBMCs) were isolated from the blood of healthy donors using a standard density gradient (Histopaque-1077, Sigma) centrifugation. After incubation at 37° C. for 2 hr, the nonadherent cells were collected and resuspended at 5×10^5/ml in RPMI 1640 medium containing 10% FBS, 5 μg of phytohemagglutinin (PHA)/ml, and 100 U of IL-2/ml, followed by incubation at 37° C. for 3 days. The PHA-stimulated cells were infected with the corresponding primary HIV-1 isolates at a multiplicity of infection (MOI) of 0.01 in the absence or presence of antisera at a serial 2-fold dilution. The supernatants were collected 7 days post-infection and tested for p24 antigen by ELISA as described above. The IC50 was calculated using the CalcuSyn
(§3) software as described above.

[7] = system: 92US657 (B, R5); assay type: cell-based, HIV-1
Procedure: as §2, §3

[8] = system: HIV-1 IIIB (B, X4)
Procedure: The inhibitory activity of the bifunctional molecule on HIV-1 IIIB infection was determined by ELISA for p24 production (Jiang S et al. J Exp Med 174:1557-1563, 1991). Briefly, MT-2 cells were infected with HIV-1IIIB at 100 TCID50 (50% tissue culture infective dose) in RPMI 1640 medium containing 10% FBS in the presence or absence of an antigen specific antiserum or IgG antibody in serial 2-fold dilutions at 37° C. overnight. The culture supernatants were then removed and fresh media were added. On day 4 post-infection, the culture supernatants were collected and mixed with equal volumes of 5% Triton X-100 for the detection in the p24 protein ELISA.

Sequence of proteinase K (P06873 106-384): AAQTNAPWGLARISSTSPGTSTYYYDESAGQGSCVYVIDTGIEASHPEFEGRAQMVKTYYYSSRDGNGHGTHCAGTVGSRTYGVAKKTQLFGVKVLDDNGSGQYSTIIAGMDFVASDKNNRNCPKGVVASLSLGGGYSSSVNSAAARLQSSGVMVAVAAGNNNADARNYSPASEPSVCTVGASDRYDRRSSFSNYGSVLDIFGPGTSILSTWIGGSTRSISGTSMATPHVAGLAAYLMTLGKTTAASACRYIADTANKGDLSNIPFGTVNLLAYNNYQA

Question: For enfuvirtide, which “time after which activity began to be lost in PBMC” value ([1]; PBMC in RPMI1640 with 10% FBS) is on record?
Answer: > 2 days

Question: What about the “activity lost in PBMC after 6 days incubation” value ([1]; PBMC, 6 days) of the same substance?
Answer: > 90%

Question: And the “treatment time with proteinase K after which activity was totally lost” value [2]?
Answer: 5 min

Question: What about the pIC50 ([3]; read-out: IC50, concentration for inhibiting HIV-1 IIIB-mediated cell fusion) of the same substance?
Answer: 7.80

Question: What about the IC90 ([3]; read-out: IC90, concentration for inhibiting HIV-1 IIIB-mediated cell fusion) of the same substance?
Answer: 25.4 nM

Question: And the “inhibition of infection by T20-resistant strain” value ([4]; concentration up to 2,000 nM)?
Answer: no inhibition

Question: What about the pIC50 ([4]; read-out: IC50, HIV-1 replication, NL4-3V38A/N42G, T20-resistant HIV-1 strain, luciferase) of the same substance?
Answer: < 5.70

Question: What about the IC90 ([4]; read-out: IC90, HIV-1 replication, NL4-3V38A/N42G, T20-resistant HIV-1 strain, luciferase) of the same substance?
Answer: > 2000 nM

Question: And the “residual activity in human serum after 6 days” value [5]?
Answer: 5%

Question: What about the pIC50 [6] of the same substance?
Answer: 8.57

Question: And the IC90 [6]?
Answer: 6.5 nM

Question: And the pIC50 [7]?
Answer: 8.77

Question: And the IC90 [7]?
Answer: 13 nM

Question: What about the pIC50 ([8]; IIIB (B, X4)) of the same substance?
Answer: 7.17

Question: And the IC90 ([8]; IIIB (B, X4))?
Answer: 211 nM

Question: With “TTWMAWDREINNYTSLIHSLIRRSQNQQEKNEQELLELDKWASLLWNWF [T1144-C10]” as the substance, how does the pIC50 ([8]; read-out: IC50, HIV-1 replication, IIIB (B, X4), MT-2 cells, p24) read?
Answer: < 6.60

Question: And the IC90 ([8]; read-out: IC90, HIV-1 replication, IIIB (B, X4), MT-2 cells, p24)?
Answer: > 250 nM
